Test results from ChEMBL document CHEMBL1153660, “Synthesis and pharmacological properties of BW315c and other inotropic 2-arylimidazo[1,2-a]pyrazines” (Bioorg Med Chem Lett, 1993).
The source made the active and inactive calls. No cut-off for these calls is given here.

How the values were obtained:
Canis familiaris [1] = species on record: Canis familiaris; assay: 10% increase in heart rate in open chest dogs; format: functional; settings: Canis lupus familiaris
[2] = Ratio of ED50 (increased ventricular pressure) to ED30 (diastolic blood pressure); format: functional, Artery
Canis familiaris [3] = species on record: Canis familiaris; assay: 30% decrease in diastolic blood pressure in open chest dogs; format: functional; settings: Canis lupus familiaris, Artery
Canis familiaris [4] = assay: Time required for inotropic response at 0.80 mg/kg dose; range 30-45; format: functional, Canis lupus familiaris; settings: dose 0.8 mg/kg
Cavia porcellus [5] = species on record: Cavia porcellus; assay: In vitro 50% increase in basal contractile force of paced guinea pig papillary muscle (insoluble); format: functional, organism-based; settings: Muscle tissue
Canis familiaris [6] = assay: Time required for vasodilator response at 0.80 mg/kg dose; range 30-45; format: functional, Canis lupus familiaris; settings: dose 0.8 mg/kg
Canis familiaris [7] = assay: In vivo 50% increase in left ventricular pressure in open chest dogs; format: functional; settings: Canis lupus familiaris, Heart left ventricle
Canis familiaris [8] = assay: Time required for inotropic response at 0.80 mg/kg dose; range 45-60; format: functional, Canis lupus familiaris; settings: dose 0.8 mg/kg
Canis familiaris [9] = assay: Time required for vasodilator response at 0.80 mg/kg dose; range 2-15; format: functional, Canis lupus familiaris; settings: dose 0.8 mg/kg
Cavia porcellus [10] = species on record: Cavia porcellus; assay: In vitro 50% increase in basal contractile force of paced guinea pig papillary muscle; format: functional, Muscle tissue
Phosphodiesterase 3 = Phosphodiesterase 3 (Homo sapiens, UniProt Q14432+Q13370); assay: Concentration of compound required for 50% inhibition of type III cAMP phosphodiesterase from dog ventricles, activity expressed as pIC50; format: protein assay, Canis lupus familiaris
Canis familiaris [11] = assay: Time required for inotropic response at 0.80 mg/kg dose; format: functional, Canis lupus familiaris; settings: dose 0.8 mg/kg
Canis familiaris [12] = assay: Time required for vasodilator response at 0.80 mg/kg dose; format: functional, Canis lupus familiaris; settings: dose 0.8 mg/kg
Canis familiaris [13] = assay: Time required for vasodilator response at 0.80 mg/kg dose; range 10-30; format: functional, Canis lupus familiaris; settings: dose 0.8 mg/kg
Canis familiaris [14] = assay: Time required for vasodilator response at 0.80 mg/kg dose; range 15-30; format: functional, Canis lupus familiaris; settings: dose 0.8 mg/kg
Canis familiaris [15] = assay: Time required for inotropic response at 0.80 mg/kg dose; range 20-30; format: functional, Canis lupus familiaris; settings: dose 0.8 mg/kg
Cavia porcellus [16] = species on record: Cavia porcellus; assay: In vitro 50% increase in basal contractile force of paced guinea pig papillary muscle (inactive); format: functional; settings: Muscle tissue

Compound | ED10 (Canis familiaris [1]) [mg/kg] | Ratio [2] | ED30 (Canis familiaris [3]) [mg/kg] | ED50 (Canis familiaris [7]) [mg/kg] | pA50 (Cavia porcellus [10]) | Duration (Canis familiaris [11]) [min] | Duration (Canis familiaris [12]) [min] | further results
COc1cc(C(N)=O)ccc1-c1cn2ccnc(OC)c2n1 | 0.06 | 0.04 | 0.15 | 0.06 | – | – | – | Duration (Canis familiaris [4]): 30 min; pA50 (Cavia porcellus [5]): Insoluble; Duration (Canis familiaris [6]): 30 min
COc1cc(OS(C)(=O)=O)ccc1-c1cn2ccnc(OC)c2n1 | 0.05 | 1.2 | 0.06 | 0.07 | – | – | – | Duration (Canis familiaris [8]): 45 min; Duration (Canis familiaris [9]): 2 min; pA50 (Cavia porcellus [5]): Insoluble
COc1cc(C(N)=O)ccc1-c1nc2cc[nH]cc-2n1 | – | – | – | 0.01 | 4.43 | – | – | –
COc1cc([S+](C)[O-])ccc1-c1cn2ccnc(OC)c2n1 (stereo unspecified) | 0.11 | 0.08 | 1.17 | 0.09 | 4.82 | 60 | 2 | Log IC50 (Phosphodiesterase 3): -4.4
COc1cc([S+](C)[O-])ccc1-c1cn2cccnc2n1 (stereo unspecified) | – | – | – | 2.4 | 4.63 | – | – | –
COc1cc(C(N)=O)ccc1-c1cn2ccncc2n1 | 0.02 | 0.4 | 0.05 | 0.02 | 4.68 | >30 | <5 | –
COc1cc([S+](C)[O-])ccc1-c1cn2ccncc2n1 (stereo unspecified) | 0.28 | 25 | 0.03 | 0.75 | 5.39 | 5 | >90 | Log IC50 (Phosphodiesterase 3): -5
Cc1[nH]c(=O)c(C#N)cc1-c1ccncc1 [MILRINONE] | 0.02 | 0.3 | 0.06 | 0.02 | – | – | – | Duration (Canis familiaris [13]): 10 min; Duration (Canis familiaris [8]): 45 min
COc1cc([S+](C)[O-])ccc1-c1nc2cnccc2[nH]1 (stereo unspecified) [ISOMAZOLE] | 0.06 | 0.32 | 0.19 | 0.06 | 4.64 | – | – | Log IC50 (Phosphodiesterase 3): -4.5; Duration (Canis familiaris [14]): 15 min; Duration (Canis familiaris [15]): 20 min
COc1cc(OS(C)(=O)=O)ccc1-c1nc2cc[nH]cc-2n1 | – | – | – | 0.002 | <5 | – | – | –
COc1cc([S+](C)[O-])ccc1-c1nc2cccnc2[nH]1 (stereo unspecified) [SULMAZOLE] | 0.5 | – | 1.25 | 0.8 | 4.7 | 30 | 30 | –
COc1cc(OS(C)(=O)=O)ccc1-c1cn2ccncc2n1 | – | – | – | – | – | – | – | pA50 (Cavia porcellus [16]): inactive
COc1cc([S+](C)[O-])ccc1-c1nc2c(OC)nccc2[nH]1 (stereo unspecified) | – | – | – | 0.13 | 3.91 | – | – | –
